Measured values taken from ChEMBL document CHEMBL2169792, “Synthesis of new 4-thiazolidinone-, pyrazoline-, and isatin-based conjugates with promising antitumor activity” (J Med Chem, 2012).
The source made the active and inactive calls. The rule behind the calls is not given here.

Columns and labels:
NCI-H522 = assay: Cytotoxicity against human NCI-H522 cells assessed as cell growth at 10 uM after 48 hrs by SRB assay; assay type: functional; conditions: NCI-H522, 48 h, read-out: Activity
[1] = Cytotoxicity against human non-small cell lung cancer cells after 48 hrs by SRB assay; assay type: functional; conditions: Cancer cell lines; for CC50: read-out: LC50 (the source's name)
[2] = Cytotoxicity against human prostate cancer cells after 48 hrs by SRB assay; assay type: functional; conditions: Cancer cell lines
[3] = Cytotoxicity against human breast cancer cells after 48 hrs by SRB assay; assay type: functional; conditions: Cancer cell lines
[4] = Cytotoxicity against human renal cancer cells after 48 hrs by SRB assay; assay type: functional; conditions: Cancer cell lines
[5] = Cytotoxicity against human melanoma cells after 48 hrs by SRB assay; assay type: functional; conditions: Melanoma cell; for CC50: read-out: LC50 (the source's name)
[6] = Cytotoxicity against human ovarian cancer cells after 48 hrs by SRB assay; assay type: functional; conditions: Cancer cell lines
[7] = Cytotoxicity against human CNS cancer cells after 48 hrs by SRB assay; assay type: functional; conditions: Cancer cell lines
[8] = Cytotoxicity against human colon cancer cells after 48 hrs by SRB assay; assay type: functional; conditions: Cancer cell lines
[9] = Cytotoxicity against human leukemia cells after 48 hrs by SRB assay; assay type: functional; conditions: Leukemia cell; for CC50: read-out: LC50 (the source's name)
U-251 = assay: Cytotoxicity against human U251 cells assessed as cell growth at 10 uM after 48 hrs by SRB assay; assay type: functional; conditions: U-251, 48 h, read-out: Activity
[10] = Toxicity in mouse; assay type: organism-based; conditions: in vivo
Mus musculus = assay: Antitumor activity in ip dosed athymic nude mouse hollow fiber model assessed as reduction of viable cell mass; assay type: functional, organism-based
CCRF-CEM = assay: Cytotoxicity against human CCRF-CEM cells assessed as cell growth at 10 uM after 48 hrs by SRB assay; assay type: functional; conditions: read-out: Activity

Row | SMILES | GI50 [1] [µM] | TGI [1] [µM] | CC50 [1] [µM] | GI50 [2] [µM] | LC50 [2] [µM] | GI50 [3] [µM] | LC50 (concentration causing 50% net cell kill) [3] [µM] | TGI [3] [µM] | GI50 [4] [µM] | LC50 [4] [µM] | TGI [4] [µM] | GI50 [5] [µM] | TGI [5] [µM] | CC50 [5] [µM] | GI50 [6] [µM] | LC50 (concentration causing 50% net cell kill) [6] [µM] | GI50 [7] [µM] | LC50 (concentration giving 50% net cell kill) [7] [µM] | TGI [7] [µM] | GI50 [8] [µM] | also measured
1 | COc1ccc(C2=NN(C3=NC(=O)/C(=C4\C(=O)N(C)c5ccccc54)S3)C(c3ccc(Cl)cc3)C2)cc1 (stereo not drawn) |  |  |  |  |  |  |  |  |  |  |  |  |  |  |  |  |  |  |  |  | growth at 10 µM (NCI-H522): 102%
2 | COc1ccc(-c2cc(-c3ccc(OC)cc3)n(C3C(=O)Nc4ccccc43)n2)cc1 (stereo not drawn) |  |  |  |  |  |  |  |  |  |  |  |  |  |  |  |  |  |  |  |  | growth at 10 µM (NCI-H522): 87.5%
3 | COc1ccc(-c2cc(-c3ccc(OC)cc3)n(C3C(=O)Nc4ccc(Cl)cc43)n2)cc1 (stereo not drawn) |  |  |  |  |  |  |  |  |  |  |  |  |  |  |  |  |  |  |  |  | growth at 10 µM (NCI-H522): 82%
4 | Cc1ccc2c(c1)/C(=C1\SC(N3N=C(c4ccccc4)CC3c3ccc(Cl)cc3)=NC1=O)C(=O)N2 (stereo not drawn) | 0.21 | 0.62 | 100 | 0.31 | 100 | 0.8 | 100 | 100 | 0.24 | 100 | 0.52 | 0.3 | 0.67 | 100 | 0.26 | 100 | 0.24 | 75.2 | 0.32 | 0.23 | LC50 (concentration lethal to 50% of cells) [8]: 100 µM; TGI [8]: 0.35 µM; GI50 [9]: 0.39 µM; TGI [9]: 39.4 µM; CC50 [9]: 85.2 µM; growth at 10 µM (U-251): -54%
5 | CN(C)c1ccc(C2CC(c3ccccc3)=NN2C2=NC(=O)/C(=C3\C(=O)Nc4ccccc43)S2)cc1 (stereo not drawn) | 7.42 | 25.2 | 49 | 0.27 | 41.4 | 5.26 | 57.3 | 20.2 | 6.37 | 43 | 18.8 | 6.9 | 29.4 | 43.9 | 1.22 | 47.1 | 1.11 | 41.6 | 3.24 | 2.55 | MTD [10]: > 400 mg/kg; TGI [2]: 34 µM; TGI [6]: 39.7 µM; LC50 (concentration lethal to 50% of cells) [8]: 40.4 µM; TGI [8]: 35.3 µM; GI50 [9]: 33.9 µM; TGI [9]: 45.6 µM; CC50 [9]: 94.8 µM; growth at 10 µM (U-251): -39.6%; Activity (Mus musculus): inactive
6 | COc1ccc(-c2cc(-c3ccc(Cl)cc3)n(C3C(=O)Nc4ccccc43)n2)cc1 (stereo not drawn) |  |  |  |  |  |  |  |  |  |  |  |  |  |  |  |  |  |  |  |  | growth at 10 µM (CCRF-CEM): 75.6%
7 | COc1ccc(C2CC(c3ccc4ccccc4c3)=NN2C2=NC(=O)/C(=C3\C(=O)Nc4ccccc43)S2)cc1 (stereo not drawn) | 0.62 | 4.03 | 48.7 | 0.36 | 100 | 5.96 | 73.7 | 32.8 | 0.87 | 51.3 | 13.6 | 4.8 | 27 | 64.1 | 0.97 | 66.9 | 0.67 | 48.2 | 12.6 | 1.68 | TGI [2]: 2.47 µM; TGI [6]: 24.2 µM; LC50 (concentration lethal to 50% of cells) [8]: 38.3 µM; TGI [8]: 12.4 µM; GI50 [9]: 17.5 µM; TGI [9]: 59.6 µM; CC50 [9]: 97.5 µM; growth at 10 µM (U-251): -26.3%
8 | COc1ccc(-c2cc(-c3ccc(OC)cc3)n(C3C(=O)Nc4ccc(Br)cc43)n2)cc1 (stereo not drawn) |  |  |  |  |  |  |  |  |  |  |  |  |  |  |  |  |  |  |  |  | growth at 10 µM (NCI-H522): 88.6%
9 | COc1ccc(C2=NN(C3=NC(=O)/C(=C4\C(=O)Nc5ccccc54)S3)C(c3ccc(OC)cc3)C2)cc1 (stereo not drawn) | 88.1 | 91.5 | 100 | 100 | 100 | 81.5 | 100 | 99.6 | 85.2 | 100 | 100 | 100 | 100 | 100 | 92.2 | 100 | 43.9 | 100 | 89.2 | 100 | TGI [2]: 100 µM; TGI [6]: 100 µM; LC50 (concentration lethal to 50% of cells) [8]: 100 µM; TGI [8]: 100 µM; GI50 [9]: 100 µM; TGI [9]: 100 µM; CC50 [9]: 100 µM; growth at 10 µM (U-251): 44.7%
10 | O=C1Nc2ccccc2C1n1nc(-c2ccc3ccccc3c2)cc1-c1ccc(Cl)cc1 (stereo not drawn) |  |  |  |  |  |  |  |  |  |  |  |  |  |  |  |  |  |  |  |  | growth at 10 µM (NCI-H522): 90.8%
11 | O=C(O)CN1C(=O)C(n2nc(-c3ccccc3)cc2-c2ccc(Cl)cc2)c2ccccc21 (stereo not drawn) |  |  |  |  |  |  |  |  |  |  |  |  |  |  |  |  |  |  |  |  | growth at 10 µM (CCRF-CEM): 97.7%
12 | O=C(O)CN1C(=O)C(n2nc(-c3ccc4ccccc4c3)cc2-c2ccc(Cl)cc2)c2ccccc21 (stereo not drawn) |  |  |  |  |  |  |  |  |  |  |  |  |  |  |  |  |  |  |  |  | growth at 10 µM (CCRF-CEM): 103%
13 | COc1ccc(C2=NN(C3=NC(=O)/C(=C4\C(=O)Nc5ccc(Cl)cc54)S3)C(c3ccc(OC)cc3)C2)cc1 (stereo not drawn) | 0.2 | 0.44 | 64.2 | 0.25 | 100 | 0.22 | 75.2 | 0.5 | 0.19 | 50.5 | 0.39 | 0.19 | 0.38 | 33.9 | 0.23 | 83.5 | 0.2 | 35.5 | 0.42 | 0.21 | TGI [2]: 0.71 µM; TGI [6]: 21.2 µM; LC50 (concentration lethal to 50% of cells) [8]: 58.7 µM; TGI [8]: 0.43 µM; GI50 [9]: 0.28 µM; TGI [9]: 75.2 µM; CC50 [9]: 100 µM; growth at 10 µM (NCI-H522): 0.8%
14 | CN(C)c1ccc(C2CC(c3ccccc3)=NN2C2=NC(=O)/C(=C3\C(=O)Nc4ccc(Br)cc43)S2)cc1 (stereo not drawn) | 0.22 | 0.54 | 17 | 0.27 | 55.3 | 0.22 | 18.7 | 0.51 | 0.2 | 7.47 | 0.45 | 0.2 | 0.46 | 7.65 | 0.25 | 39.6 | 0.21 | 12.3 | 0.45 | 0.2 | TGI [2]: 0.72 µM; TGI [6]: 0.69 µM; LC50 (concentration lethal to 50% of cells) [8]: 1.22 µM; TGI [8]: 0.42 µM; GI50 [9]: 0.31 µM; TGI [9]: 1.29 µM; CC50 [9]: 84.8 µM; growth at 10 µM (U-251): -51.1%
15 | O=C1N=C(N2N=C(c3ccc4ccccc4c3)CC2c2ccc(Cl)cc2)S/C1=C1/C(=O)Nc2ccccc21 (stereo not drawn) | 0.46 | 20.9 | 100 | 0.4 | 100 | 0.74 | 91.7 | 38.3 | 0.4 | 75.5 | 42.1 | 0.35 | 24.7 | 83 | 15.4 | 100 | 8.8 | 75.9 | 27.3 | 0.53 | MTD [10]: > 400 mg/kg; TGI [2]: 50.7 µM; TGI [6]: 56.1 µM; LC50 (concentration lethal to 50% of cells) [8]: 83.8 µM; TGI [8]: 70.3 µM; GI50 [9]: 19.1 µM; TGI [9]: 71.6 µM; CC50 [9]: 93.1 µM; growth at 10 µM (U-251): -25.1%; Activity (Mus musculus): inactive
16 | COc1ccc(C2=NN(C3=NC(=O)/C(=C4\C(=O)Nc5ccc(Br)cc54)S3)C(c3ccc(OC)cc3)C2)cc1 (stereo not drawn) | 0.2 | 0.43 | 75.2 | 0.27 | 100 | 0.21 | 66.9 | 0.48 | 0.2 | 64.6 | 0.38 | 0.19 | 0.41 | 17.3 | 0.24 | 78.7 | 0.2 | 70.2 | 0.405 | 0.2 | TGI [2]: 0.71 µM; TGI [6]: 32.5 µM; LC50 (concentration lethal to 50% of cells) [8]: 50.4 µM; TGI [8]: 25.3 µM; GI50 [9]: 0.28 µM; TGI [9]: 62.7 µM; CC50 [9]: 100 µM; growth at 10 µM (U-251): 23.9%
17 | COc1ccc(C2=NN(C3=NC(=O)/C(=C4\C(=O)Nc5ccc(Cl)cc54)S3)C(c3ccc(Cl)cc3)C2)cc1 (stereo not drawn) | 0.2 | 0.46 | 7.93 | 0.27 | 76.2 | 0.2 | 25.7 | 0.47 | 0.2 | 13.8 | 0.46 | 0.2 | 0.44 | 1.21 | 0.27 | 31.3 | 0.19 | 12.7 | 0.43 | 0.21 | TGI [2]: 0.74 µM; TGI [6]: 7.97 µM; LC50 (concentration lethal to 50% of cells) [8]: 8.2 µM; TGI [8]: 0.45 µM; GI50 [9]: 0.27 µM; TGI [9]: 0.89 µM; CC50 [9]: 91.1 µM; growth at 10 µM (U-251): -58%
18 | O=C1Nc2ccccc2C1n1nc(-c2ccccc2)cc1-c1ccc(Cl)cc1 (stereo not drawn) |  |  |  |  |  |  |  |  |  |  |  |  |  |  |  |  |  |  |  |  | growth at 10 µM (NCI-H522): 76.6%
